One may read the pKi as the negative decadic logarithm of the Ki, by convention in mol/L. High values mean a low Ki, low ones a high Ki. A word on the inhibition: it is the percentage by which the read-out fell short of the control. Low readings indicate little suppression, high ones strong suppression.

Structures are written as SMILES. pKi: −log10 of the molar value.

From ChEMBL document CHEMBL1135193, “N-[2-(Indan-1-yl)-3-mercapto-propionyl] amino acids as highly potent inhibitors of the three vasopeptidases (NEP, ACE, ECE): In vitro and In vivo activities” (Bioorg Med Chem Lett, 2002) come the findings set out here.

The target in one test is T1, Neprilysin (Oryctolagus cuniculus, UniProt P08049).
T1 sequence (P08049 whole entry): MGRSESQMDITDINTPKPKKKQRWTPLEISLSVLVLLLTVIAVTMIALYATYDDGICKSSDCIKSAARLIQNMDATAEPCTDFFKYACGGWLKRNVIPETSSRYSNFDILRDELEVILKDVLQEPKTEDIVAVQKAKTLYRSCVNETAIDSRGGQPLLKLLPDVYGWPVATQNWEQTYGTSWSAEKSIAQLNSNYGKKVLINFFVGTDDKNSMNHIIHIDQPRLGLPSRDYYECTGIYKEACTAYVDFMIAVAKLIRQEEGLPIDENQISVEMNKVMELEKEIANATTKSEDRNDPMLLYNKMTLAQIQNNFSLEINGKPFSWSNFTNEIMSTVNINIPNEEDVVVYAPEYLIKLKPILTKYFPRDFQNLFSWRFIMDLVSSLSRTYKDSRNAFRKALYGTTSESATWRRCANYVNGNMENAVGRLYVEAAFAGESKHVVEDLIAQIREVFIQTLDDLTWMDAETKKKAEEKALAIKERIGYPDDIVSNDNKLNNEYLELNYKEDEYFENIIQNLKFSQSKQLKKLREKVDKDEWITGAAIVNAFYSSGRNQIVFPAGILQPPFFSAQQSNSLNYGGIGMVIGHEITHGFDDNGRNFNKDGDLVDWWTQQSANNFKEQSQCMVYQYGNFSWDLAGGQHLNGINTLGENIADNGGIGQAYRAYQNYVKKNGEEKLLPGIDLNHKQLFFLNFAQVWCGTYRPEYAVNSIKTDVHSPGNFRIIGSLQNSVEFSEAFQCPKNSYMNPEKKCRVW
The test can be described thus: In vitro inhibition of Neutral endopeptidase.

In test [1] the target is T2, Endothelin-converting enzyme 1 (Homo sapiens, UniProt P42892).
T2 sequence (P42892 whole entry): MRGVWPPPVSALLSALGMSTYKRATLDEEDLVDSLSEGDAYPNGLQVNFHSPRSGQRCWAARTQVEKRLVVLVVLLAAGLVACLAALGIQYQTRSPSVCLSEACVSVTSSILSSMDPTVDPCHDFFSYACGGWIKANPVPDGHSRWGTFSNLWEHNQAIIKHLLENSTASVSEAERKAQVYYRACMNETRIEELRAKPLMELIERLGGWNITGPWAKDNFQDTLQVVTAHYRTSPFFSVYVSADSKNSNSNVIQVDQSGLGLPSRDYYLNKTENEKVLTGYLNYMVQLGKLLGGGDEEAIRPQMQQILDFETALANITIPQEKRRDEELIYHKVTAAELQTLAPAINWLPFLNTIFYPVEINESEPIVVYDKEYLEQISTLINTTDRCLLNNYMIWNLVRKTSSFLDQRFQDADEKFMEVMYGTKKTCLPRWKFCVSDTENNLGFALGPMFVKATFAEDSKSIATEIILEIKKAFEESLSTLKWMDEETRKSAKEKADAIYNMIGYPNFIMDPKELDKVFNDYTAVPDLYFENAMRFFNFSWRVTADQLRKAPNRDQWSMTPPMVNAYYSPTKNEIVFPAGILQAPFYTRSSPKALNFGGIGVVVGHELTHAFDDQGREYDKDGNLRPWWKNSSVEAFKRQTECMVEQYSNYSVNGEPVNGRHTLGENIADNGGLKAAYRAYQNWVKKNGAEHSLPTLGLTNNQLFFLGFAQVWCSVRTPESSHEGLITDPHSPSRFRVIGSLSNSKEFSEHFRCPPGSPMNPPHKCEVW
The test can be described thus: In vitro inhibition of endothelin converting enzyme.

The target of test [2] is T3, Angiotensin-converting enzyme (Rattus norvegicus, UniProt P47820).
T3 sequence (P47820 whole entry): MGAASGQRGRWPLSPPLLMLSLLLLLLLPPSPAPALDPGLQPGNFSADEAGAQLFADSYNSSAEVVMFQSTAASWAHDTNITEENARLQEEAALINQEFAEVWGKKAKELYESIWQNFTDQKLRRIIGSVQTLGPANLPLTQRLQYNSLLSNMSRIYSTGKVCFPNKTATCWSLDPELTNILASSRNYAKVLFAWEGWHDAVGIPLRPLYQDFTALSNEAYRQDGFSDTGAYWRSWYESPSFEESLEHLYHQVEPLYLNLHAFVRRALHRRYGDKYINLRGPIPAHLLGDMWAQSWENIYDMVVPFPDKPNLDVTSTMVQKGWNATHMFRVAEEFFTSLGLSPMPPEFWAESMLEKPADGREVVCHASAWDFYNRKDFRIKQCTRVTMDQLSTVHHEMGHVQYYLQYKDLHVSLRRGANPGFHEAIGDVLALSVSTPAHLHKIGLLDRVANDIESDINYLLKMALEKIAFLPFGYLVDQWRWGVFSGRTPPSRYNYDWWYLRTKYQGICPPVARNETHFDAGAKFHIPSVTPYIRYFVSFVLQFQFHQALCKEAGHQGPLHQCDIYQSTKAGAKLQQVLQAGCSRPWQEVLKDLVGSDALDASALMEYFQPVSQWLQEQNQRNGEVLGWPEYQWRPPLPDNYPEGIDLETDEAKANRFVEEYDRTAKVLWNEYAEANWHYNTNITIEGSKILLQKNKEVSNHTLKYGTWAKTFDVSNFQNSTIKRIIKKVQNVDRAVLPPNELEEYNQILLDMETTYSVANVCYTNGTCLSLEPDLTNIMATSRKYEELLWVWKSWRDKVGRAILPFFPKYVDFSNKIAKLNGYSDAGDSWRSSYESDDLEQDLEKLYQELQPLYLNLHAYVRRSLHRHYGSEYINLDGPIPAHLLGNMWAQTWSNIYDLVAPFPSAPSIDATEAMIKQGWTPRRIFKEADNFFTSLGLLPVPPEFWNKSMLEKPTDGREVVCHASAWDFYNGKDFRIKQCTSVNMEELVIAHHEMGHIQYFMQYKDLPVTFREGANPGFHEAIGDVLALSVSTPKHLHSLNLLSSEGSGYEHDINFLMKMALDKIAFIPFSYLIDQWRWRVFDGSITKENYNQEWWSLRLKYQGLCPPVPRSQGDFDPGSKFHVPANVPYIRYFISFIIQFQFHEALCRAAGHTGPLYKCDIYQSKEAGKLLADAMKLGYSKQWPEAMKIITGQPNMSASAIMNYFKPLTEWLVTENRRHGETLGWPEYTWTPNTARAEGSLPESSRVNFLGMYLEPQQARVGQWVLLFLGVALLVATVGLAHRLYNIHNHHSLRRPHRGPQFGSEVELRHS
The test can be described thus: In vitro inhibition of Angiotensin I converting enzyme.

The test system of test [3] is Rattus norvegicus. The test can be described thus: Increase in MAP on intravenous injection of AI in vehicle at 1 nmol/kg iv in male wistar rats. It is filed as functional.
For test [4], the target named is T4, Neprilysin (Mus musculus) (UniProt Q61391).
T4 sequence (whole entry): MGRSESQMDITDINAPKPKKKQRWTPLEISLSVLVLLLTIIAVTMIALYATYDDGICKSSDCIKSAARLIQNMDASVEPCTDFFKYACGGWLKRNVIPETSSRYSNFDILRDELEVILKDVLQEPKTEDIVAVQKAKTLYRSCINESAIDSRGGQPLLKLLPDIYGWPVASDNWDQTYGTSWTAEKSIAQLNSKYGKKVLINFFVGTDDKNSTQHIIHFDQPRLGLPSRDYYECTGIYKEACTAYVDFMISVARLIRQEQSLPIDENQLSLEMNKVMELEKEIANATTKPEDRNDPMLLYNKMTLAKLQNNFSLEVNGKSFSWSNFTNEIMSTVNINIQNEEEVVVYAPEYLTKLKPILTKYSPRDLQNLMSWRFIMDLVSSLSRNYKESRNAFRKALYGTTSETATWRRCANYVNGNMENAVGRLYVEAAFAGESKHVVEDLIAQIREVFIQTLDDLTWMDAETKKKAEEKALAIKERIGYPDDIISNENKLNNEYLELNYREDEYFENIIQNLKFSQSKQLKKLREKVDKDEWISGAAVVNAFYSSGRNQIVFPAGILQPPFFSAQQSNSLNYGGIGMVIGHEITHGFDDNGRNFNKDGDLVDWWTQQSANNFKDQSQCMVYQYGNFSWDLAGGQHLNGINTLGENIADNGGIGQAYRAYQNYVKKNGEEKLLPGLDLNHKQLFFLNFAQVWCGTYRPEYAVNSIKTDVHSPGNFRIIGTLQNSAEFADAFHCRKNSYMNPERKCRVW
The test is described as follows: In vivo inhibition of lung Neutral endopeptidase in mice was determined by blockage of enzyme at 25 mg/kg iv of compound. Also noted: dose 25 mg/kg. It is filed as organism-based.

For test [5], the system named is Rattus norvegicus. The test is described as follows: Increase in mean arterial pressure (MAP) in anesthetized male wistar rats on iv injection of 1 nmol/kg big ET-1. Format: functional, Artery.
In test [6] the test system is Rattus norvegicus. The test is described as follows: Decrease of mean arterial pressure (MAP) on iv administration of sodium salt at 30 mg/kg at 5 or 15 min prior to the big ET-1 challenge in wistar rats. It is filed as functional, Artery.

As for `COc1ccc2c(c1)CC[C@@H]2[C@@H](CS)C(=O)N[C@@H](Cc1c[nH]c2ccccc12)C(=O)O`, the pKi on Neprilysin was 8.89; in test [1] it was 8.00; in test [2], 7.62.

In the case of `COc1cc2c(cc1OC)C(C(CS)C(=O)NC(Cc1c[nH]c3ccccc13)C(=O)O)CC2` (stereo unspecified), the negative-log Ki (pKi) is 7.11 at Neprilysin, 6.25 in test [1] and 7.11 in test [2].

Consider `O=C(O)[C@H](Cc1c[nH]c2ccccc12)NC(=O)[C@@H](CS)[C@@H]1CCc2cc(Br)ccc21`, for which the pKi is 8.03 at Neprilysin, 6.96 in test [1] and 7.24 in test [2].

In the case of `O=C(O)C(Cc1c[nH]c2ccccc12)NC(=O)C(CS)C1CCc2cc(Br)ccc21` (stereo unspecified), the pKi on Neprilysin is 8.30; in test [1], 7.51; in test [2] it was 7.92.

Regarding `O=C(O)[C@H](Cc1c[nH]c2ccccc12)NC(=O)[C@H](CS)[C@H]1CCc2cc(Br)ccc21`, the figures for the pKi (at Neprilysin; in test [1]; in test [2]) were 8.74, 7.74 and 7.26, respectively.

On to `CCOc1ccc2c(c1)CCC2C(CS)C(=O)NC(Cc1c[nH]c2ccccc12)C(=O)O` (stereo unspecified), for which the pKi at Neprilysin is 8.10; in test [1], 7.33; in test [2], 7.74.

On to `COc1ccc2c(c1)CCC2C(CS)C(=O)NC(Cc1c[nH]c2ccccc12)C(=O)O` (stereo unspecified), for which the negative logarithm of the Ki (pKi) on Neprilysin is 8.30; in test [1], 7.66; in test [2] it was 7.96.

Consider `O=C(O)C(Cc1c[nH]c2ccccc12)NC(=O)C(CS)C1CCc2cc(-c3ccccc3)ccc21` (stereo unspecified), for which the pKi was 7.85 on Neprilysin, 6.85 in test [1] and 7.57 in test [2].

Consider `CSc1ccc2c(c1)CCC2C(CS)C(=O)NC(Cc1c[nH]c2ccccc12)C(=O)O` (stereo unspecified), for which the pKi is 8.22 on Neprilysin, 7.46 in test [1] and 7.85 in test [2].

`COc1ccc2c(c1)CC[C@@H]2[C@H](CS)C(=O)N[C@@H](Cc1c[nH]c2ccccc12)C(=O)O`: the pKi on Neprilysin was 8.57; in test [1] it was 7.00; in test [2], 8.34.

Turning to `O=C(O)C(Cc1c[nH]c2ccccc12)NC(=O)C(CS)C1CCc2cc(O)ccc21` (stereo unspecified), the values for the pKi (at Neprilysin; in test [1]; in test [2]) were 8.40, 7.05 and 8.15, respectively.

Consider `O=C(O)[C@H](Cc1c[nH]c2ccccc12)NC(=O)[C@@H](CS)[C@H]1CCc2cc(Br)ccc21`, for which the MAP with Rattus norvegicus [3] is 15 mmHg; in the test on Rattus norvegicus [5], 57.2 mmHg; in the test with Rattus norvegicus [6] it was -15.2 mmHg. In test [4], this compound displayed an inhibition of 70%. Also, the pKi was 8.42 at Neprilysin, 7.55 in test [1] and 8.39 in test [2].

With `COc1ccc2c(c1)C(C(CS)C(=O)NC(Cc1c[nH]c3ccccc13)C(=O)O)CC2` (stereo unspecified), the pKi on Neprilysin is 7.96; in test [1], 7.10; in test [2], 7.46.

On to `O=C(O)[C@H](Cc1c[nH]c2ccccc12)NC(=O)[C@H](CS)[C@@H]1CCc2cc(Br)ccc21`, for which the values for the pKi (at Neprilysin; in test [1]; in test [2]) were 7.89, 7.05 and 7.18, respectively.

Turning to `COc1cccc2c1CCC2C(CS)C(=O)NC(Cc1c[nH]c2ccccc12)C(=O)O` (stereo unspecified), the pKi at Neprilysin is 7.80; in test [1], 6.12; in test [2], 8.10.

Take `COc1ccc2c(c1)CC[C@H]2[C@H](CS)C(=O)N[C@@H](Cc1c[nH]c2ccccc12)C(=O)O`: the pKi on Neprilysin is 7.52; in test [1], 5.84; in test [2], 7.15.

For the compound `COc1ccc2c(c1)CC[C@H]2[C@@H](CS)C(=O)N[C@@H](Cc1c[nH]c2ccccc12)C(=O)O`, the values for the negative-log Ki (pKi) (at Neprilysin; in test [1]; in test [2]) were 7.82, 6.74 and 7.52, respectively.

Take `CN(C)c1ccc2c(c1)CCC2C(CS)C(=O)NC(Cc1c[nH]c2ccccc12)C(=O)O` (stereo unspecified): the pKi was 7.82 at Neprilysin, 6.43 in test [1] and 7.36 in test [2].

With `N#Cc1ccc2c(c1)CCC2C(CS)C(=O)NC(Cc1c[nH]c2ccccc12)C(=O)O` (stereo unspecified), the pKi at Neprilysin was 7.96; in test [1], 6.68; in test [2], 8.52.
